Measurements: article PMC8766756, “Insights on Cancer Cell Inhibition, Subcellular Activities, and Kinase Profile of Phenylacetamides Pending 1H-Imidazol-5-One Variants” (Frontiers in Pharmacology, 2022)

Columns and labels:
[1] = test system: MCF7 breast cancer cell line; assay: SRB cytotoxicity assay; format: cell-based, human; settings: for IC50: Homo sapiens, MCF7, 72 h, MCF7, SRB, 72 h, read-out: IC50 ± SEM MCF7
Protocol: (§1) The compounds were screened for their anticancer activities against a variety of cancer cell lines. The cytotoxic effect of the compounds was evaluated using the sulforhodamine B (SRB) cytotoxicity assay for breast cancer line (MCF7) and prostate cancer cell line (PC3) ([Vichai and Kirtikara, 2006]; [Rana et al., 2021]) and 3-(4,5-dimethylthiazol-2-yl)-2,5-diphenyl-2H-tetrazolium bromide (MTT) assay for the colon cancer (HCT116) cell lines ([El-Huneidi et al., 2020]). The CellTiter-Blue® cell viability assay was performed on the various leukemia cell lines, HL60, NB4, and KG1a cells ([Akter et al., 2019]). The IC50 values are illustrated in Table 1.
(§2) MCF7 (breast), PC3 (prostate), and HCT116 (colon) cancer cell lines were obtained from ATCC, Manassas, VA, USA. Cells were grown in Roswell Park Memorial Institute-1640 (RPMI-1640) medium (Thermo Fisher Scientific, Inc., Waltham, MA, USA), supplemented with 10% heat inactivated fetal bovine serum (FBS), 50 units/mL of penicillin, and […] of streptomycin and maintained at 37°C in a humidified atmosphere containing 5% CO2. The cells were maintained as “monolayer culture” by serial subculturing.
(§3) Exponentially growing MCF7 and PC3 cells were collected using 0.25% Trypsin-EDTA and were then seeded in 96-well plates at a density of 1,000–2,000 cells/well in 10% FBS and penicillin/streptomycin supplemented RPMI-1640 medium. After 24 h, the cells were treated with different concentrations of the test compounds and incubated for 72 h at 37°C in a humidified atmosphere containing 5% CO2. Next, the cells were fixed by trichloroacetic acid (TCA) (10% final concentration in wells) directly to the wells and incubated for 1 h at 4°C, then the cells were washed with distilled water five times to remove excess TCA, media, serum proteins, and metabolites, followed by air drying. After that, the fixed cells were stained with 0.4% SRB dissolved in 1% acetic acid for 10 min at room temperature, and excess stain was removed by quickly rinsing with 1% acetic acid. The residual acetic acid was removed completely by air drying the plates for 24 h, and the dye was solubilized with Tris buffer (pH = 7.4, 10 mM) for 5 min on a shaker at 1,600 rpm. The optical density of each well was measured spectrophotometrically at 564 nm with an ELISA microplate reader (ChroMate-4300, FL, USA). The IC50 values were calculated according to the equation for Boltzman sigmoidal concentration–response curve using the nonlinear regression fitting models (GraphPad®, Prism Version 5).

[2] = test system: PC3 prostate cancer cell line; assay: SRB cytotoxicity assay; format: cell-based, human; settings: Homo sapiens, 72 h, read-out: IC50 ± SEM PC3
Protocol: as §1, §2, §3

[3] = test system: HCT116 colon cancer cell line; assay: MTT antiproliferative assay; format: cell-based; settings: Homo sapiens, HCT-116; HCT116, MTT, 72 h; read-out: IC50 ± SEM HCT116
Protocol: as §1, §2
The test compounds were evaluated for antiproliferative activity using the MTT viability assay against the HCT116 cell line. The cells were seeded in triplicate in 96-well plates at a density of 10 × 10^3 cells/mL in a total volume of 200 µL per well. 0.1% of DMSO was used as a vehicle control. Each well was treated with 2 µL of test compound, which had been preprepared as stock solutions in ethanol to furnish the concentration range of the study, 0.1–50 μM, and re-incubated for a further 72 h at 37°C in a humidified atmosphere containing 5% CO2. The culture medium was then removed, and the cells were washed with 100 µL of PBS, and 100 µL of MTT was added, to reach a final concentration of 1 mg/ml of MTT. The cells were incubated for 3 h in darkness at 37°C. After removal of MTT solution, solubilization was initiated through the addition of […] of DMSO, and the cells were maintained at room temperature in darkness for 20 min to ensure thorough color diffusion before reading the absorbance with a microplate reader at 570 nm. The results were expressed as percentage viability relative to vehicle control (100%). The dose–response curves were plotted, and the IC50 values (concentration of drug resulting in 50% reduction in cell survival) were obtained using the commercial software package Prism (GraphPad® Software, Inc., La Jolla, CA, USA). All the experiments were repeated in at least three independent experiments.

Src kinase = target: Src kinase; parameters: method as in Antonarakis et al., 2013; settings: ref Antonarakis et al., 2013; read-out: Src kinase inhibition IC50; cited from earlier work
tubulin polymerization = test system: tubulin polymerization; parameters: method as in earlier work; settings: ref Hangauer, 2007; Smolinski et al., 2018; Markham and Duggan, 2021; read-out: tubulin polymerization inhibition IC50; cited from earlier work
HL60 leukemia cell line = assay: CellTiter-Blue cell viability assay; format: cell-based; settings: Homo sapiens, HL-60, 48 h, read-out: IC50 ± SEM HL60
Protocol: as §1
HL60, NB4, and KG1a were purchased from CLS Cell Line Service GmbH (Eppelheim, Germany). All cell lines were cultured in RPMI-1640 medium supplemented with 10% FBS (Thermo Fisher Scientific) and ciprofloxacin (10 μg/ml; Cipla Limited; Mumbai, India), at 37°C with 5% CO2 in a humidified incubator.
The CellTiter-Blue® Cell Viability assay was acquired from Promega Corporation (Madison, WI, USA). The cell viability assay was performed as follows: the cells (10^4/well) were incubated with a concentration gradient of the test compounds ranging from 0.01 to 100 μM, in 96-well plates for 48 h at 37°C. Subsequently, 20 µL of the CellTiter-Blue® Cell Viability reagent was added to each well and incubated for an additional 2 h for the development of fluorescence. The fluorescence emission was measured at 590 nm using the SpectraMax® i3x Multi-Mode Microplate Reader (Molecular Devices, LLC; San Jose, CA, USA.) and plotted against the drug concentrations to determine the IC50 of the test compounds.

SMILES | melting point [°C] | IC50 [3] [µM] | IC50 (HL60 leukemia cell line) [µM] | IC50 [1] [µM] | IC50 [2] [µM] | activity relative to KIM-161 ([1]; phenyl instead of methyl, Table 1) | times less active than 4c (KIM-161) ([1]; on MCF7 and PC3 cells) | IC50 (Src kinase) [µM] | IC50 (tubulin polymerization) [µM]
O=C(Cc1ccc(N2C(=O)/C(=C/c3ccc(Cl)cc3)N=C2c2ccccc2)cc1)NCc1ccccc1 [Compound 4f, (Z)-N-Benzyl-2-(4-(4-(4-chlorobenzylidene)-5-oxo-2-phenyl-4,5-dihydro-1H-imidazol-1-yl)phenyl)acetamide] | 218 to 220 |  |  | 44.2 ± 8.67 | 74.2 ± 12.3 |  |  |  | 
CC1=N/C(=C\c2ccccc2)C(=O)N1c1ccc(CC(=O)NCc2ccccc2)cc1 [Compound 4a, (Z)-N-Benzyl-2-(4-(4-benzylidene-2-methyl-5-oxo-4,5-dihydro-1H-imidazol-1-yl)phenyl)acetamide] | 164 to 165 |  |  | 11.6 ± 2.01 | 1.67 ± 0.66 |  |  |  | 
O=C(Cc1ccc(-c2ccc(OCCN3CCOCC3)cc2)cn1)NCc1ccccc1 [KX2-391, Tirbanibulin] |  |  |  |  |  |  |  | 0.025 | 0.25
O=C(Cc1ccc(N2C(=O)/C(=C/c3ccccc3)N=C2c2ccccc2)cc1)NCc1ccccc1 [Compound 4e, (Z)-N-Benzyl-2-(4-(4-benzylidene-5-oxo-2-phenyl-4,5-dihydro-1H-imidazol-1-yl)phenyl)acetamide] | 218 to 219 |  |  | 34.9 ± 8.08 | 41.7 ± 2.99 |  |  |  | 
COc1cc(/C=C2\N=C(c3ccccc3)N(c3ccc(CC(=O)NCc4ccccc4)cc3)C2=O)ccc1O [Compound 4h, (Z)-N-Benzyl-2-(4-(4-(4-hydroxy-3-methoxybenzylidene)-5-oxo-2-phenyl-4,5-dihydro-1H-imidazol-1-yl)phenyl)acetamide] | 109 to 112 |  |  | 35.1 ± 4.57 | 37.5 ± 15.4 |  |  |  | 
COc1cc(/C=C2\N=C(C)N(c3ccc(CC(=O)NCc4ccccc4)cc3)C2=O)ccc1O [Compound 4d, (Z)-N-Benzyl-2-(4-(4-(4-hydroxy-3-methoxybenzylidene)-2-methyl-5-oxo-4,5-dihydro-1H-imidazol-1-yl)phenyl)acetamide] |  | 6.13 ± 1.35 | 1.44 ± 0.07 | 9.48 ± 1.16 | 5.83 ± 1.44 |  |  |  | 

More lines, main results first:

melting point [°C] | IC50 [3] [µM] | IC50 (HL60 leukemia cell line) [µM] | SMILES | IC50 [1] [µM] | IC50 [2] [µM] | activity relative to KIM-161 ([1]; phenyl instead of methyl, Table 1) | times less active than 4c (KIM-161) ([1]; on MCF7 and PC3 cells) | IC50 (Src kinase) [µM] | IC50 (tubulin polymerization) [µM]
193 |  |  | COc1ccc(/C=C2\N=C(c3ccccc3)N(c3ccc(CC(=O)NCc4ccccc4)cc3)C2=O)cc1 [Compound 4g, (Z)-N-Benzyl-2-(4-(4-(4-methoxybenzylidene)-5-oxo-2-phenyl-4,5-dihydro-1H-imidazol-1-yl)phenyl)acetamide] | 32.1 ± 3.98 | 38.7 ± 5.01 | less than one-tenth |  |  | 
209 to 211 | > 50 |  | CC1=N/C(=C\c2ccc(Cl)cc2)C(=O)N1c1ccc(CC(=O)NCc2ccccc2)cc1 [Compound 4b, (Z)-N-Benzyl-2-(4-(4-(4-chlorobenzylidene)-2-methyl-5-oxo-4,5-dihydro-1H-imidazol-1-yl)phenyl)acetamide] | 20.8 ± 1.35 | 6.87 ± 0.41 |  |  |  | 
189 to 200 |  |  | COc1ccc(C=C(NC(C)=O)C(=O)Nc2ccc(CC(=O)NCc3ccccc3)cc2)cc1 (stereo in doubt) [Compound 5, (E)-2-acetamido-N-(4-(2-(benzylamino)-2-oxoethyl)phenyl)-3-(4-methoxyphenyl) acrylamide] | 44.3 ± 9.2 | 41.1 ± 9.55 |  | 20–40 times |  | 
